Assay [1] has as its system RKO (RKOp27) human colon adenocarcinoma cells. Kind of assay: Alamar Blue cell viability assay, anti-proliferative/cytotoxic activity on proliferating RKO subclones. Type of assay: cell-based. The following applies: RKOp27, 72 h, RKO p27 uninduced (proliferating) cells, value = class bound given in Table A, read-out: −logIC50 RKO p27 uninduced (proliferating) (converted). In outline:
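Alamar Blue fluorescence (ex 544, em 590 nm) after 72 h compound exposure at 37 °C, 5% CO2, normalised to untreated controls set at 100%. Cells were seeded at 5000 per well and dosed 24 h later with serial semi-logarithmic dilutions in 10% FCS DMEM, four replicates each. −log IC50 [mol/l] was derived from concentration-effect curves.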
A general note: Alamar Blue is a resazurin reagent that responds to reducing activity.

Assay [2] concerns subclones of RKO colon adenocarcinoma cells (RKOp27 or RKOp21) arrested by Ponasterone A. Kind of assay: Alamar Blue cell viability assay, cell cycle specific mode of action: cells arrested by ectopic p27Kip1 induced by Ponasterone A versus proliferating cells. The following applies: Homo sapiens, RKO p27 induced (arrested) cells, 10 μM Ponasterone A, 72 hours, value = class bound given in Table A, read-out: −logIC50 RKO p27 induced (arrested) (converted). The format is cell-based. In outline: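 Viability of proliferating versus Ponasterone A (10 μM)-arrested RKOp27/RKOp21 cells after 72 h compound exposure at 37° C, in quadruplicate. Read-out is Alamar Blue fluorescence (544/590 nm) normalised to untreated cells = 100%; values as −log IC50.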

Take `CCN(C)C(=O)OC1CCc2c(sc(NC(=O)/C=C/c3cccnc3)c2C#N)C1` (stereo not shown) [Example 91, Ethyl-methyl-carbamic acid 3-cyano-2-((E)-3-pyridin-3-yl-allanoylamino)-4,5,6,7-tetrahydro-benzo[b]thiophen-6-yl ester]: the IC50 in assay [1] is at most 501 nM; in assay [2] it was at least 100000 nM.
On the same counts, the results for `N#Cc1c(NC(=O)/C=C/c2cccnc2)sc2c1CCC(OC(=O)N1CC=CC1)C2` (stereo not shown) [Example 92, 2,5-Dihydro-pyrrole-1-carboxylic acid 3-cyano-2-((E)-3-pyridin-3-yl-allanoylamino)-4,5,6,7-tetrahydro-benzo[b]thiophen-6-yl ester] are at most 501 nM and at least 100000 nM.
Turning to `CC1CCCN1C(=O)OC1CCc2c(sc(NC(=O)/C=C/c3cccnc3)c2C#N)C1` (stereo not shown) [Example 93, 2-Methylpyrrolidine-1-carboxylic acid 3-cyano-2-((E)-3-pyridin-3-yl-allanoylamino)-4,5,6,7-tetrahydro-benzo[b]thiophen-6-yl ester], the results for the IC50 in assay [1] and in assay [2] were at most 501 nM and at least 100000 nM, respectively.
On the same counts, the results for `Cc1cc(CNC(=O)OC2CCc3c(sc(NC(=O)/C=C/c4cccnc4)c3C#N)C2)on1` (stereo not shown) [Example 94, (3-Methyl-isoxazol-5-ylmethyl)-carbamic acid 3-cyano-2-((E)-3-pyridin-3-yl-allanoylamino)-4,5,6,7-tetrahydro-benzo[b]thiophen-6-yl ester] are at most 501 nM and at least 100000 nM.
On the same counts, the results for `Cc1cc(CNC(=O)OC2CCc3c(sc(NC(=O)/C=C/c4cccnc4)c3C#N)C2)n(C)n1` (stereo not shown) [Example 95, (2,5-Dimethyl-2H-pyrazol-3-ylmethyl)-carbamic acid 3-cyano-2-((E)-3-pyridin-3-yl-allanoylamino)-4,5,6,7-tetrahydro-benzo[b]thiophen-6-yl ester] are at most 501 nM and at least 100000 nM.
`N#Cc1c(NC(=O)/C=C/c2cccnc2)sc2c1CCC(OC(=O)N1CCC(O)CC1)C2` (stereo not shown) [Example 96, 4-Hydroxy-piperidine-1-carboxylic acid 3-cyano-2-((E)-3-pyridin-3-yl-allanoylamino)-4,5,6,7-tetrahydro-benzo[b]thiophen-6-yl ester]: the figures for the IC50 in assay [1] and in assay [2] were at most 501 nM and at least 100000 nM, respectively.
On the same counts, the results for `CC(C)N(C)C(=O)OCC1CCc2c(sc(NC(=O)/C=C/c3cccnc3)c2C#N)C1` (stereo not shown) [Example 97, Isopropyl-methyl-carbamic acid 3-cyano-2-((E)-3-pyridin-3-yl-allanoylamino)-4,5,6,7-tetrahydro-benzo[b]thiophen-6-ylmethyl ester] are at most 501 nM and at least 100000 nM.
As for `N#Cc1c(NC(=O)/C=C/c2cccnc2)sc2c1CCC(COC(=O)NC1CCC1)C2` (stereo not shown) [Example 98, Cyclobutyl-carbamic acid 3-cyano-2-((E)-3-pyridin-3-yl-allanoylamino)-4,5,6,7-tetrahydro-benzo[b]thiophen-6-ylmethyl ester], the IC50 in assay [1] is at most 501 nM; in assay [2] it was at least 100000 nM.
On the same counts, the results for `N#Cc1c(NC(=O)/C=C/c2cccnc2)sc2c1CCC(COC(=O)NC1CC1)C2` (stereo not shown) [Example 99, Cyclopropyl-carbamic acid 3-cyano-2-((E)-3-pyridin-3-yl-allanoylamino)-4,5,6,7-tetrahydro-benzo[b]thiophen-6-ylmethyl ester] are at most 501 nM and at least 100000 nM.
On the same counts, the results for `N#Cc1c(NC(=O)/C=C/c2cccnc2)sc2c1CCC(COC(=O)N[C@H]1CC[C@H](O)CC1)C2` (stereo partly drawn) [Example 100, trans-4-Hydroxycyclohexyl-carbamic acid 3-cyano-2-((E)-3-pyridin-3-yl-allanoylamino)-4,5,6,7-tetrahydro-benzo[b]thiophen-6-ylmethyl ester] are 501 to 2000 nM and at least 100000 nM.
On the same counts, the results for `CC(C)NC(=O)OCC1CCc2c(sc(NC(=O)/C=C/c3cccnc3)c2C#N)C1` (stereo not shown) [Example 101, Isopropyl-carbamic acid 3-cyano-2-((E)-3-pyridin-3-yl-allanoylamino)-4,5,6,7-tetrahydro-benzo[b]thiophen-6-ylmethyl ester] are at most 501 nM and at least 100000 nM.

The record behind these values is patent US20110044938A1 (NYCOMED GMBH, priority 2006, published 2011).
